According to patent publication US20080153792A1, “Drug Identification and Treatment Method” (priority 2006, published 2008):

Key:
CaCo-2 cell monolayer = experiment: drug absorption with CaCo-2 cells; type: in vitro ADME, human
Description: Measurement of drug absorption with CaCo-2 cells. This protocol was used to measure the influx of compounds across a CaCo-2 cell monolayer. […] This cell line is used to study the rate at which various compounds cross the cell monolayer. […] This can provide information about a compound's potential to be orally bioavailable.
In this protocol, the cells were maintained in medium at 37° C., using 100 μL per well of warm medium in a sterile 50 ml tube. The cells were grown on sterile 24-well plates with 600 μL of differentiation medium per well. The wells contained a transwell insert to allow two compartments per well. […]
After differentiation medium reached room temperature, about 20 mL was poured into a small beaker. […] Each well was measured by the probe by inserting the probe into the well without touching the cell monolayer; press the TEST button when the probe is close to the medium surface and the reading will go from 0000 to a number when the probe touches the surface; a reading >1000Ω was acceptable. […]
20 μL of the 3α,7β,16α,17β-tetrahydroxyandrost-5-ene internal standard was added to each tube and 1500 μL of methyl-t-butyl ether was added to each tube. […] The methyl-t-butyl ether was then evaporated under nitrogen and reconstituted in 120 μL acetonitrile/water (35:65) and analyzed by LCMS.

androgen receptor = androgen receptor (Homo sapiens, UniProt P10275); experiment: interaction with androgen receptor
female SJL mice, EAE = experiment: experimental autoimmune encephalomyelitis (EAE), PLP-induced, Example 23; type: in vivo, mouse; settings: 0.1 mg q.d. po from clinical onset
MG-63 cells = experiment: reversal of glucocorticoid effects in MG-63 osteosarcoma cells; type: cell-based, human; settings: 0.1 μM compound
[1] = metabolic stability in liver microsomes: mouse; settings: 10 min
Description: (§1) The protocol was performed as follows. […] (2) Set up samples as follows. […] (4) The internal standard/acetonitrile solution.

[2] = test system: estrogen receptor-s or estrogen receptor-s; experiment: interaction with estrogen receptors
[3] = other protocols: degree of sulfation and glucuronidation
[4] = metabolic stability in liver microsomes: human
Description: as §1

[5] = test system: C57/BL6 mice, LPS-induced acute lung inflammation; experiment: LPS-induced lung injury, BAL and lung MPO, Example 11; type: in vivo, mouse; settings: 40 mg/Kg orally; 48 h after LPS
[6] = test system: 8 week old db/db diabetic mice; experiment: hyperinsulinemic-euglycemic clamp in db/db mice; type: in vivo, mouse
Description: Glucose lowering in 8 week old db/db diabetic mice. The hyperinsulinemic-euglycemic clamp protocol was conducted to measure insulin sensitivity in vivo. In this procedure, insulin was administered to raise the insulin concentration while glucose was infused to maintain euglycemia or a fixed, normal blood glucose level (about 180 mg/dL). […] The objective of this protocol was to investigate characterize the capacity of 17α-ethynylandrost-5-ene-3β,7β,17β-triol and androst-5-ene-3β,7β,16α,17β-tetrol to ameliorate systemic insulin resistance and improve whole body glucose disposal in the hyperinsulinemic-euglycemic clamp model. The degree of skeletal muscle and hepatic insulin sensitivity and tissue specific glucose uptake were also assessed. The animals were dosed daily by oral gavage for 14 days. On Day 10 of treatment catheters were implanted in the carotid artery and jugular vein. On the day of the clamp (day 14) the compound was administered at 7:30 am.
Body weight and glucose concentration were assessed on day 0, 7 and day 14 of treatment. On day 14 a euglycemic hyperinsulinemic clamp was performed. […] Plasma ^14C 2-deoxyglucose was assessed at 122, 125, 130, 135, 145 min. […]
Analysis was conducted as follows. Plasma samples were deproteinized with Ba(OH)2 (0.3 N) and ZnSO4 (0.3 N), dried and radioactivity was assessed on scintillation counter (Packard TRICARB 2900 TR, Meriden, Conn.). […] One supernatant was directly counted to determine radioactivity from both [14C] […] A second aliquot was treated with Ba(OH)2 and ZnSO4 to remove ^14C DGP and any tracer incorporated into glycogen and then counted to determine radioactivity from free [^14C]DG(2). [^14C]DGP was calculated as the difference between the two aliquots. […] Rg, an index of tissue specific glucose uptake was calculated as previously described (E. W. Kraegen et al., Am. J. Physiol., 248:E353-E362, 1985). Whole body glucose turnover was calculated as the ratio of the ^3H glucose infusion rate (dpm/kg/min) and arterial plasma glucose specific activity (dpm/mg). […]

[7] = test system: rats, trauma and hemorrhage; experiment: rat model of hemorrhagic trauma, 40% loss of total blood volume; type: in vivo; settings: one s.c. injection 40 mg/kg one hour after initiation of hemorrhage; n=12
Description: The effect of treatment in a rat model of hemorrhagic trauma was examined. Twenty-four rats were subjected to 40% loss of total blood volume, consisting of catheterization and laparotomy (soft tissue injury) to mimic trauma and hemorrhage. One hour after onset of hemorrhage, the animals were resuscitated with crystalloid fluid and packed red blood cells (PRBCs). […] Twelve animals received subcutaneous methyl cellulose control injection at 100 μL/kg body weight.

PPARα mRNA = experiment: liver mRNA by RT-PCR in rats fed compound in chow: PPARα; type: in vivo, rat; settings: 0.45% wt/wt in chow for 6 days; control 100%
Description: (§2) Rats were fed ad libum with a standard laboratory chow that contained 0.45% wt/wt of androst-5-ene-3β,7β,17β-triol for 6 days, followed by analysis of liver tissue on day 6 for levels of phosphoenolpyruvate carboxykinase (“PEPCK”) and 11β-hydroxysteroid dehydrogenase (“11β-HSD”) in the liver. Control animals were fed normal chow and livers were examined on day 6 for PEPCK and 11β-HSD levels by measurement of messenger RNAs (mRNAs) by RT-PCR. Both control and treated animals had free access to water. […] Levels of PPARα mRNA in these animals were not affected by feeding with androst-5-ene-3β,7β,17β-triol.

PEPCK mRNA = experiment: liver mRNA by RT-PCR in rats fed compound in chow: PEPCK; type: in vivo, rat; settings: 0.45% wt/wt in chow for 6 days; control 100%
Description: as §2

[8] = test system: rats hemorrhaged to mean arterial pressure of about 35-40 mmHg; experiment: reduced blood pressure hemorrhagic trauma protocol; type: in vivo, rat; settings: one s.c. injection 40 mg/kg; n=7; untreated group 75%
Description: A reduced blood pressure hemorrhagic trauma protocol was also conducted as a second model of hemorrhagic trauma. In this protocol, 15 rats were hemorrhaged described above to a mean arterial pressure of about 35-40 mmHg and resuscitated one hour from onset of the hemorrhage with crystalloid and PRBCs. Seven […] subcutaneous injection of androst-5-ene-3β,7β,17β-triol in a methyl cellulose suspension at a concentration of 40 mg/kg body weight in 100 μL/kg body weight, one hour after initiation of hemorrhage, but before fluid resuscitation. Eight animals received subcutaneous methyl cellulose control injection at 100 μL/kg body weight. Two days after induction of hemorrhage, mortality in the untreated group (n=8) was 75%.

[9] = test system: male Wistar rats, DNBS colitis; experiment: DNBS induced distal colitis; type: in vivo, rat; settings: s.c. once a day for 6 days, 0.2 or 2.0 mg/animal/day; 25-30% decrease considered significant
Description: Treatment of gastrointestinal inflammation. The capacity of formula 1 compounds to limit or inhibit inflammation or symptoms of inflammation was shown using an animal model for inflammatory bowel disease. Groups of 3 male Wistar rats (180±20 grams) fasted for 24 hours before 2,4-dinitrobenzene sulfonic acid (DNBS) or saline challenge were used. Distal colitis was induced by intra-colonic instillation of 0.5 mL of an ethanolic solution of DNBS (30 mg in 0.5 mL of a 30% ethanol in saline solution) after which 2 mL of air was injected through the cannula to ensure that the solution remained in the colon. The volume used was 0.1 mL per injection of 2 and 20 mg/mL of compound such as androst-5-ene-3β,7β,17β-triol in a liquid formulation, which was administered by subcutaneous injection once a day for 6 days (0.2 mg/animal/day or 2.0 mg/animal/day). The formulation contained 100 mg/mL of compound in a non-aqueous suspension, e.g., 2% benzyl alcohol w/v, 0.1% Brij 96 w/v and equal volumes of PEG 300 and propylene glycol. Concentrations of 2 mg/mL and 20 mg/mL were obtained by diluting the […] with vehicle that lacked compound.
The first dose was given 30 minutes after DNBS challenge. […] The presence of diarrhea was recorded daily by examining the anal area. […] Before removal of the colon, signs of adhesion between the colon and other organs are recorded. […]

[10] = test system: thermally-injured mice (20% total body surface area); experiment: bone loss in thermally-injured mice; type: in vivo, mouse
Description: In bone loss conditions, 5-androstene-3β,7β,17β-triol affected the principal bone structures, i.e., cortical and trabecular layers and the growth plate. […] We observed partial protection against loss of bone mineral content as measured by dual X-ray absorptiometry.

[11] = test system: gerbils, cerebral ischemic stroke; experiment: acute cerebral ischemic stroke by bilateral carotid occlusion; type: in vivo, gerbil; settings: stroke treated
Description: Treatment of neuron loss associated with trauma and osteoporosis or bone loss conditions. Immune competence is a complex function that can be acutely impaired following trauma-induced elevations in endogenous glucocorticoid (GC) levels. The compound 5-androstene-3β,7β,17β-triol administered parenterally was used to preserve these immune function by exerting a trophic or anabolic activity. […] Thus, the measured food-searching latency period in each group was 6.9±0.9 seconds (sec) for sham, 46.9±13.6 sec for stroke alone and 14.8±4.8 sec for stroke treated with 5-androstene-3β,7β,17β-triol. Concomitantly, the stroke-induced loss in CA1 hippocampal neuron count was markedly abrogated by 5-androstene-3β,7β,17β-triol (sham=362,247±6,839; stroke=152,354±11,575; and stroke+5-androstene-3β,7β,17β-triol=207,854±47,334).

11β-HSD1 mRNA = experiment: liver mRNA by RT-PCR in rats fed compound in chow: 11β-HSD1; type: in vivo, rat; settings: 0.45% wt/wt in chow for 6 days; control 100%
Description: as §2

Sequence of androgen receptor (P10275 whole entry, species assumed): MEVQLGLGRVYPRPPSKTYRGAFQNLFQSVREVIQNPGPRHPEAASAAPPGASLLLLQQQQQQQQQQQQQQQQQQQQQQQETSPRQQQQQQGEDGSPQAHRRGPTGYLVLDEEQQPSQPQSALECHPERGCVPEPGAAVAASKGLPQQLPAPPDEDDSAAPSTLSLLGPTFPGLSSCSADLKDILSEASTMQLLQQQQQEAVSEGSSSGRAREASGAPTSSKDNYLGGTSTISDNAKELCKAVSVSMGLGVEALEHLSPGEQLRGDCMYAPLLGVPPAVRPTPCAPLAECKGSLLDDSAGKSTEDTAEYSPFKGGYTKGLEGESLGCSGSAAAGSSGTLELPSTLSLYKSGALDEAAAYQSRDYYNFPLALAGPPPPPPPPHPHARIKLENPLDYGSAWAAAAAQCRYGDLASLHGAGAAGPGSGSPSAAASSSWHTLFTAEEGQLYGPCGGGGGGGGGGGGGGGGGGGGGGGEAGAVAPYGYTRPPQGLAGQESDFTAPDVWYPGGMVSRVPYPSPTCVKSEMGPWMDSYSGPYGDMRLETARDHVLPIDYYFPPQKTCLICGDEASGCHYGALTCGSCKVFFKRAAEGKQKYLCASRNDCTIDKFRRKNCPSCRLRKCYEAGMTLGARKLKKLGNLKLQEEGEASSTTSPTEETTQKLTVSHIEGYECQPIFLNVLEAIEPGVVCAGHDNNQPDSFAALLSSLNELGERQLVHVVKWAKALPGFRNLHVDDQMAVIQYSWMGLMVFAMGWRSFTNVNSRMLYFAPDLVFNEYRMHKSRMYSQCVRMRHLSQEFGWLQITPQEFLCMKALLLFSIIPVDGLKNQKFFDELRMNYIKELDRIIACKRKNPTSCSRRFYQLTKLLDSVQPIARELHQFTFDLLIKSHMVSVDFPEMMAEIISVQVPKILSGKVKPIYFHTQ

Question: For `C[C@]12CC[C@H]3[C@@H]([C@@H](O)C=C4C[C@@H](O)CC[C@@]43C)[C@@H]1C[C@@H](O)[C@@H]2O` [androst-5-ene-3β,7β,16α,17β-tetrol], which “permeability in the CaCo-2 cell line” value (CaCo-2 cell monolayer) is on record?
Answer: not highly permeable

Question: What about the “interaction with androgen receptor” value (androgen receptor) of the same molecule?
Answer: do not interact

Question: And the “course of EAE compared to vehicle-treated mice” value (female SJL mice, EAE)?
Answer: significantly improved course of EAE

Question: What about the “osteoprotegerin levels in the presence of 30 nM dexamethasone” value (MG-63 cells) of the same molecule?
Answer: normal osteoprotegerin levels

Question: What about the “parent remaining mouse microsomes” value [1] of the same molecule?
Answer: 100% (10 min)

Question: And the “interaction with estrogen receptor-s or estrogen receptor-s” value [2]?
Answer: do not interact

Question: What about the “degree of sulfation and degree of glucuronidation compared to diols” value [3] of the same molecule?
Answer: low

Question: What about the “parent remaining human microsomes” value ([4]; 10 min) of the same molecule?
Answer: 100% (10 min)

Question: And the “level of IL-6 in BAL compared to vehicle treated animals” value [5]?
Answer: reduced levels

Question: And the “level of MPO compared to vehicle treated animals” value [5]?
Answer: reduced levels

Question: And the “level of TNFα in BAL compared to vehicle treated animals” value [5]?
Answer: reduced levels

Question: What about the “augmenting muscle glucose uptake in the gastrocnemius muscle” value ([6]; ^14C-2-deoxyglucose, p<0.05) of the same molecule?
Answer: more effective

Question: And the “glucose infusion rate compared to the vehicle control” value ([6]; oral gavage 14 days, insulin 10 mU/kg/min)?
Answer: increased the glucose infusion rate

Question: Which “survival rate three days after induction of hemorrhage” value [7] does the source give for `C[C@]12CC[C@H]3[C@@H]([C@@H](O)C=C4C[C@@H](O)CC[C@@]43C)[C@@H]1CC[C@@H]2O` [androst-5-ene-3β,7β,17β-triol] here?
Answer: 100%

Question: And the “PPARα mRNA” value (PPARα mRNA)?
Answer: 105%

Question: What about the “PEPCK mRNA” value (PEPCK mRNA) of the same molecule?
Answer: 30%

Question: What about the “mortality rate two days after induction of hemorrhage” value [8] of the same molecule?
Answer: 43%

Question: And the “decrease in net colon-to-body weight ratio” value [9]?
Answer: 15-20%

Question: What about the “parent remaining mouse microsomes” value [1] of the same molecule?
Answer: 89% (10 min)

Question: And the “femur ash weight versus vehicle-treated burned mice” value [10]?
Answer: significantly (p<0.01) greater

Question: What about the “loss of cortical (femur) and trabecular/cancellous (tibia) bone mass and suppression of chondrocyte proliferation in growth plate” value [10] of the same molecule?
Answer: significantly (p<0.01) prevented

Question: What about the food-searching latency period ([11]; sham 6.9±0.9, stroke alone 46.9±13.6) of the same molecule?
Answer: 14.8 ± 4.8 s

Question: And the “CA1 hippocampal neuron count” value ([11]; sham 362,247±6,839, stroke 152,354±11,575)?
Answer: 207,854±47,334

Question: What about the “parent remaining human microsomes” value ([4]; 90 min) of the same molecule?
Answer: 86% (90 min)

Question: What about the “11β-HSD1 mRNA” value (11β-HSD1 mRNA) of the same molecule?
Answer: 45%
